{"source": "patent US7432301B2", "about": "“Use of S-nitrosothiol signaling to treat disordered control of breathing” (University of Virginia Patent Foundation, priority 2001, dated 2008)", "key": {"[1]": {"molecular_target": "T1, γ-glutamyl transpeptidase (GGT) (Rattus norvegicus, UniProt P07314)", "T1 construct": "from tissue; host or cells: nucleus tractus solitarius (brainstem) of living male Sprague-Dawley rats", "T1 sequence (P07314 whole entry)": "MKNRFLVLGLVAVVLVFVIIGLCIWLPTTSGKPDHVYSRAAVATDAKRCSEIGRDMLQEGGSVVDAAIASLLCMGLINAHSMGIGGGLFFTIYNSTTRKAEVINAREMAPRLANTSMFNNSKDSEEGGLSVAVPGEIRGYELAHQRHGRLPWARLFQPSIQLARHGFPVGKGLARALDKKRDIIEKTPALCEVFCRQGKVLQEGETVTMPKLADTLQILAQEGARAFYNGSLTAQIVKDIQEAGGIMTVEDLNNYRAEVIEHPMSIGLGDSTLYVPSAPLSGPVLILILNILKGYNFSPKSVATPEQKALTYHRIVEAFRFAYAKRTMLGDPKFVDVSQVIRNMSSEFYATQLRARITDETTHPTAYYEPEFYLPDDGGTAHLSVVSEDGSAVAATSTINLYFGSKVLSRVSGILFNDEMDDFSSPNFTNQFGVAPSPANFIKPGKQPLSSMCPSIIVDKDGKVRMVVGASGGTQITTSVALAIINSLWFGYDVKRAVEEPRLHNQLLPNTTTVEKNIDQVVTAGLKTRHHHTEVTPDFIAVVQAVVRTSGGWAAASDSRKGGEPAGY", "assay": "Effect of GGT inhibition (acivicin pre-treatment of NTS) on ventilatory effects of SNOs and on ventilatory offset", "type": "in vivo", "details": "for SNO-stimulated VE increase after GGT inhibition: SNO 10 nmol microinjection after pre-treatment with acivicin 7.5 nmol (FIG. 2A)", "source_text": "CGSNO (10 nmol) stimulated VE increases that were not modified by acivicin (P=NS; n=6). FIG. 2B represents the data generated from a hypoxic ventilatory response in GGT-deficient mice (+/+, wild type; +/−, heterozygotes; −/−, GGT-deficient). Lowest VE during the 30 s after cessation of hypoxia is expressed as percent change from pre-hypoxia baseline (P<0.0001; n=8 each group).\nEndothelial transport and targeted neuronal biological activity of GSNO may depend, under certain circumstances, on biochemical modifications such as cleavage by GGT to form CGSNO. […] Moreover, normal ventilatory offset (that is, the gradual return to baseline of VE after recovery from hypoxia that prevents apnea) was inhibited by acivicin. […] This distinction may have pharmacological implications.\n(§1) A dual cannula (22G; Plastics One) was implanted close to the nucleus of the solitary tract according to standard stereotaxic coordinates (−14.0 mm bregma, 0.5 mm off midline, 7.0 mm depth; see Paxinos, G. & Watson, C. The Rat Brain in Stereotaxic Coordinates (Academic, New York, 1986), figure 74) through a hole drilled into the occipital skull of male Sprague-Dawley rats (approximately 250 g; pentobarbital anaesthesia). Placement was confirmed histologically after protocol completion. After recovery for 48 h (return to normal feeding and sleep/waking patterns), breath-by-breath ventilation was measured using the barometric method previously described (Gozal et al., J. Appl. Physiol. 81, 2068-2077 (1996)) after simultaneous, bilateral 0.1-ul injections in the freely behaving animal."}, "[2]": {"tested_on": "respiratory centers of the NTS", "assay": "Minute ventilation (VE) by whole-body plethysmography after bilateral microinjection into the NTS of freely behaving, conscious rats", "type": "in vivo, rat", "details": "for effect on VE: excess amount, n=3, P=NS; for increase in VE (minute ventilation): 1 nmol injected into NTS, conscious rats; for VE change from baseline: administered at NTS, dose not given (FIG. 1C); for onset/decay characteristics of the VE response: after injection into NTS, compared with hypoxia and return to normoxia (FIGS. 1A, 1B)", "source_text": "To test the hypothesis that SNOs stimulate respiratory centers of the NTS to increase VE, the ability of endogenous SNOs to increase VE in freely behaving, conscious rats using whole-body plethysmography was examined.\nas §1"}, "[3]": {"assay": "Decay of CSNO isomers in rat brainstem homogenates", "type": "in vitro ADME", "procedure": "To test the hypothesis that SNOs stimulate respiratory centers of the NTS to increase VE, the ability of endogenous SNOs to increase VE in freely behaving, conscious rats using whole-body plethysmography was examined. […] The L- and D-isomers of CSNO decayed at identical rates in rat brainstem homogenates (26% min-1 mg -1 protein each; P=not significant (NS)).\n(§2) SNOs were prepared by acid nitrosation, titrated to pH 7.4 and maintained in EDTA in the dark at −80° C. until use to prevent decomposition. SNOs were detected by reduction/chemiluminescence as previously described (Fang et al., Biochem. Biophys. Res. Commun. 252, 535-540 (1998)). Briefly, samples were injected into 100 μM CuCl, 1 mM cysteine (pH 6; 50 8C) and purged with helium (grade 5; BOC Gases). Evolved NO was measured by chemiluminescence."}, "[4]": {"assay": "Relative stability of deoxygenated blood-derived SNOs", "type": "physicochemical", "procedure": "Oxygenated blood drawn in an airtight syringe with GSH and EDTA (final concentrations 400 μM) by left ventricular puncture (rat) or peripherally (human) was maintained in 21% oxygen. Venous blood was reacted identically and was transferred to a hypoxia chamber under argon. Oxygen tension was measured electrochemically (Chirion). Samples underwent centrifugation (3,000 g for 5 min) followed by ultrafiltration (10K; Millipore), separation and selective ultraviolet photolysis (Jelight PS-3000-30; Laguna-Hills).\nas §2"}, "[5]": {"tested_on": "blood pressure or heart rate", "assay": "Hemodynamic effects (blood pressure, heart rate) of SNOs", "type": "in vivo", "details": "same species"}}, "note": "Entries after “also recorded” stand apart in the source; their conditions may differ.", "data": [{"smiles": "N[C@H](C(=O)O)[C@@H]1CC(Cl)=NO1", "note": "[acivicin, reference compound]", "values": [{"measurement": "effect on GSNO-mediated increases in VE", "setting": "[1]; NTS pre-treatment with the inhibitor", "value": "attenuated"}, {"measurement": "effect on normal ventilatory offset (gradual return of VE to baseline after hypoxia)", "setting": "[1]; recovery from hypoxia", "value": "inhibited"}]}, {"smiles": "N[C@@H](CCC(=O)N[C@@H](CS)C(=O)NCC(=O)O)C(=O)O", "note": "[glutathione]", "values": [{"measurement": "effect on VE", "setting": "[2]", "value": "neither excess 8-bromocyclic GMP nor glutathione had any effect"}]}, {"smiles": "N[C@@H](CSN=O)C(=O)O", "note": "[L-CSNO, S-nitroso-L-cysteine]", "values": [{"measurement": "increase in VE (minute ventilation)", "setting": "[2]", "value": "equivalent increases"}, {"measurement": "VE change from baseline", "setting": "[2]", "value": "increases in VE"}, {"measurement": "decay rate", "setting": "[3]", "value": 26, "unit": "% min-1 mg -1 protein"}]}, {"smiles": "N[C@@H](CSN=O)C(=O)NCC(=O)O", "note": "[CGSNO, S-Nitrosocysteinyl glycine]", "values": [{"measurement": "increase in VE (minute ventilation)", "setting": "[2]", "value": "marked increase; also recorded: equivalent increases"}, {"measurement": "VE change from baseline", "setting": "[2]", "value": "increases in VE"}, {"measurement": "onset/decay characteristics of the VE response", "setting": "[2]", "value": "identical to those observed during short exposure of the whole animal to hypoxia and return to normoxia"}, {"measurement": "SNO-stimulated VE increase after GGT inhibition", "setting": "[1]", "value": "not modified; also recorded: increases minute ventilation; also recorded: overcame this inhibition"}, {"measurement": "stability relative to GSNO", "setting": "[4]", "value": "less stable than GSNO"}]}, {"smiles": "Nc1nc2c(nc(Br)n2[C@@H]2O[C@@H]3COP(=O)(O)O[C@H]3[C@H]2O)c(=O)[nH]1", "note": "[8-bromocyclic GMP, reference compound]", "values": [{"measurement": "effect on VE", "setting": "[2]", "value": "neither excess 8-bromocyclic GMP nor glutathione had any effect"}]}, {"smiles": "N[C@H](CSN=O)C(=O)O", "note": "[D-CSNO, S-nitroso-D-cysteine, reference compound]", "values": [{"measurement": "increase in VE (minute ventilation)", "setting": "[2]", "value": "no effect"}, {"measurement": "VE change from baseline", "setting": "[2]", "value": "without effect"}, {"measurement": "decay rate", "setting": "[3]", "value": 26, "unit": "% min-1 mg -1 protein"}]}, {"smiles": "N[C@@H](CCC(=O)N[C@@H](CSN=O)C(=O)NCC(=O)O)C(=O)O", "note": "[GSNO, S-nitrosoglutathione]", "values": [{"measurement": "increase in VE (minute ventilation)", "setting": "[2]", "value": "equivalent increases"}, {"measurement": "VE change from baseline", "setting": "[2]", "value": "increases in VE; also recorded: dramatically increase"}, {"measurement": "onset/decay characteristics of the VE response", "setting": "[2]", "value": "identical to those for recovery from hypoxia"}, {"measurement": "SNO-stimulated VE increase after GGT inhibition", "setting": "[1]", "value": "abolished"}, {"measurement": "effects on blood pressure or heart rate (hemodynamic effects)", "setting": "[5]", "value": "no effects; also recorded: not reproduced"}]}]}
